# Measurements from patent publication US9000027B2, “Chk1 suppresses a caspase-2 apoptotic response to DNA damage that bypasses p53, bcl-2 and caspase-3” (Dana-Farber Cancer Institute, Inc., priority 2008, dated 2015).
# Columns and labels:
# myeloid cells = assay: Quantification of myeloid cells (mpo/l-plastin in situ hybridization) in irradiated embryos; assay type: in vivo, zebrafish; details: p53^e7/e7 background, IR, 28 hpf
# From the text: FIG. 2 provides a series of fluorescent images, western blot images, in situ hybridization images and two sets of graphs as outlined below. chk1 knockdown radiosensitizes p53 mutants but is otherwise compatible with normal zebrafish development. (A) Fluorescence images of representative embryos of indicated genotypes+/−chk1 MO after 0- or 12.5-Gy IR. 5 bpmmMO, 5-base-pair mismatch MO. (B) Quantified AO responses of indicated genotypes with or without IR (12.5 Gy) and chk1 MO. Gray bars, p53^+/+ background; black bars, p53^e7/e7 background. AO staining was quantified in ≧8 embryos per condition, with ≧1000 embryos scored. All data are reported as means+/−SEM. ***P<0.0001 (two-tailed Student's t-test). […] (E) Fluorescence images of representative embryos of indicated genotypes. p53^e6 is the N168K mutation, corresponding to human residue 200. p53MO, MO against the p53 5′UTR. (F) Fluorescence images of live transgenic embryos injected with the indicated MOs at the 1-cell stage and expressing EGFP in the notochord (top, embryos photographed at 24 hpf) or in myeloid progenitors (bottom, embryos photographed at 16.5 hpf). […] (G) Quantification of myeloid cells in 28 hpf embryos generated as indicated (x-axis) and processed as in panel H. Gray bars, p53^+/+ background; black bars, p53^e7/e7 background. mpo/lplastin staining was quantified in 15 embryos per condition. […]
# [1] = test system: Tg(rag2:EGFP-bcl-2) larvae; assay: T-cell radioresistance in Tg(rag2:EGFP-bcl-2) larvae; assay type: in vivo, zebrafish
# From the text: To test this notion in vivo, we exploited a zebrafish transgenic line expressing a stable EGFP-bcl-2 fusion transgene under control of the rag2 promoter (Langenau et al., 2005). Such Tg(rag2: EGFP-bcl-2) larvae are characterized by highly radioresistant T- and B-cells at 9 dpf. […] Together with our human cell culture studies, our in vivo analysis of Gö6976 in zebrafish raises the remarkable possibility that tumors disrupting p53 or its attendant downstream pathway—in other words, most human cancers—will respond favorably to Chk1 inhibitors.
# Immediately before IR, 18-hpf embryos were dechorionated and transferred to fresh egg water containing 1% DMSO, with or without the following inhibitors at indicated final concentrations: KU55933 (10 μM; Sigma) (Hickson et al., 2004); Chk2 Inhibitor II (10 μM; Calbiochem) (Arienti et al., 2005); Gö6976 (1 μM; Calbiochem) (Kohn et al., 2003). Unless stated otherwise, embryos were exposed to the inhibitors for 6 hr, transferred to fresh egg water, rinsed five times for 5 min, and labeled with AO. For experiments with Tg(rag2:EGFP-bcl-2) larvae, larvae were incubated in the inhibitor solution at 4 dpf, irradiated at 5 dpf, rinsed at 6 dpf, incubated in fresh inhibitor for an additional 72 hr, and mounted live at 9 dpf for fluorescence microscopic analysis of EGFP expression.
# ATR = assay: Western blot of ATR activity (Chk1 phosphorylation at Ser317) in HeLa cells; assay type: cell-based, human; details: 10 Gy IR+Gö6976 1 μM
# Procedure: (§1) Protein extract (5-60 μg) was added to 4× gel loading buffer and 10× denaturing solution (Invitrogen) in appropriate proportions, and samples were incubated at 70° C. for 10 min. Samples were run at 200V for 1 hr on a 4-12% Bis-tris gradient gel (Invitrogen). After electrophoresis, samples were transferred for 1.5 hr (350 mA) to a Nitrocellulose membrane (Millipore) using a submerged transfer apparatus (Bio-Rad). Membranes were then blocked with 5% milk in Tris-buffered saline with 0.1% tween (TBST) and probed overnight at 4° C. with the following antibodies: anti-zebrafish Chk1 (diluted 1:200), anti-zebrafish Chk2 (1:200), anti-P-Cdc2 (1:1000), anti-actin (1:2000), anti-human ATR (1:500) and Stressgen anti-human-caspase-3 (1:500) for zebrafish immunoblots; and anti-caspase-2 (1:200), Upstate anti-caspase-3 (1:500), anti-P-ATM (1:500), anti-ATM (1:500), Santa Cruz anti-human Chk1 (1:1000), Santa Cruz anti-human Chk2 (1:1000), anti-P-Chk1 (1:500), anti-P-Chk2 (1:500), anti-P-H2A.X (1:2000), anti-P-cdc25C (1:1000), anti-P-HSP27 (1:1000), anti-HSP27 (1:1000), anti-P-Cdc2 (1:1000), anti-p53 (1:1000) and anti-GAPDH (1:5000) for immunoblots of human tumor cell lysates. Detailed references for all primary antibodies can be found in the ‘Antibodies’ section elsewhere herein.
# caspase-3 = assay: Western blot of cleaved caspase-3 in HeLa cells; assay type: cell-based, human; details: 10 Gy, 24 hpIR, Gö6976 1 μM
# Procedure: as §1
# ATM = assay: Western blot of ATM activity (Chk2 phosphorylation at Thr68) in HeLa cells; assay type: cell-based, human; details: 10 Gy IR+Gö6976 1 μM
# Procedure: as §1
Compound,average reduction in myeloid cell numbers (myeloid cells) [fold],"larvae with T-cell radioresistance suppressed ([1]; 15 Gy IR at 5 dpf, Gö6976 for 5 days from 4 dpf, scored 9 dpf, n=26, DMSO: none (n=28)) [%]","adverse effects of systemic treatment ([1]; larvae, 5 days exposure)",phosphorylated Chk1 at Ser317 (readout for ATR activity) (ATR),levels of cleaved caspase-3 (caspase-3),phosphorylated Chk2 at Thr68 (readout for ATM activity) (ATM)
"chk1 MO: morpholino against zebrafish chk1 atg/5'UTR, aggcacagccattatgcaatcttcg (SEQ ID NO: 11) (AGGCACAGCCATTATGCAATCTTCG; all phosphorodiamidate morpholino (PMO))",2,,,,,
Cn1c2ccccc2c2c3c(c4c5ccccc5n(CCC#N)c4c21)CNC3=O [Gö6976],,58,without any apparent adverse effects,synergistic increases,negligible,synergistic increases
